Test results as given in patent publication US4000283A, “Compound 3,4,5-trimethoxyphenyl-(3,4-dimethyl-2-pyridyl)-carbonyl” (priority 1974, dated 1976).

How the values were obtained:
[1] = Acute toxicity in mice (i.p., Litchfield and Wilcoxon); assay type: in vivo, albino I.C.R. Swiss mice; conditions: mouse, in vivo, ip, albino I.C.R. Swiss mice, both sexes
Protocol: (§1) The acute toxicity studies were carried out in albino I.C.R. Swiss mice weighing 30 ± 2 g, of both sexes. The products were administered intraperitoneally (i.p). The acute toxicity was calculated according to the method of Litchfield and Wilcoxon.

[2] = test system: acetic acid-induced writhing; assay: Analgesia, acetic acid-induced writhing technique in mice; assay type: in vivo, albino I.C.R. Swiss mice; conditions: for No. of writhes (x ± M.S.E.): Table B-I, control 112.1 ± 4.2; for No. of writhes (x ± M.S.E.) / Number of writhes (x ± M.S.E.): 30 min before acetic acid, counted during 20 min; for Number of writhes (x ± M.S.E.): Table B-II, control 99.6 ± 5.6; for analgesic activity: mice, i.p., compared with dextropropoxyphene
Protocol: The analgesic action was investigated in albino I.C.R. Swiss mice, using the acetic acid-induced writhing technique. Groups each of 10 mice were assembled.
The analgesics were injected intraperitoneally (i.p), and after 30 minutes 0.25 ml of a 1% solution of acetic acid was injected i.p. A control group received acetic acid only. The number of writhes made by each mouse was counted during the 20 minutes following the administration of acetic acid.

albino I.C.R. Swiss mice = assay: Acute toxicity in mice (i.p., Litchfield and Wilcoxon); assay type: in vivo; conditions: mice
Protocol: as §1

[3] = dextropropoxyphene, 25 mg/kg i.p.

Structure (SMILES): CCC(=O)O[C@](Cc1ccccc1)(c1ccccc1)[C@H](C)CN(C)C [Dextropropoxyphene, reference compound]
- LD50 [1]: 140 mg/kg
- No. of writhes (x ± M.S.E.) [2, 3]: 22.8 ± 4.74 writhes
- Number of writhes (x ± M.S.E.) [2, 3]: 50.2 ± 4.4 writhes

Structure (SMILES): COc1cc(CC2C(C)=C(C)CCN2C)cc(OC)c1OC (centres unmarked) [Product I, 1,3,4-trimethyl-2-(3,4,5-trimethoxybenzyl)-1,2,5,6-tetrahydropyridine]
- Acute toxicity compared with dextropropoxyphene (albino I.C.R. Swiss mice): less toxic than dextropropoxyphene
- LD50 [1]: 154 mg/kg
- No. of writhes (x ± M.S.E.) ([2]; Product I, 20 mg/kg i.p.): 74.5 ± 4.84 writhes
- analgesic activity [2]: has analgesic activity but less than that of dextropropoxyphene

Structure (SMILES): COc1cc(C(O)c2nccc(C)c2C)cc(OC)c1OC (centres unmarked) [Product II, 3,4,5-trimethoxyphenyl-(3,4-dimethyl-2-pyridyl)carbinol]
- Acute toxicity compared with dextropropoxyphene (albino I.C.R. Swiss mice): less toxic than dextropropoxyphene
- LD50 [1]: 292 mg/kg
- Number of writhes (x ± M.S.E.) ([2]; Product II, 40 mg/kg i.p.): 29 ± 7.3 writhes
- analgesic activity [2]: high analgesic activity
